Assay results taken from patent publication US20210254056A1, “IDENTIFICATION AND TARGETED MODULATION OF GENE SIGNALING NETWORKS” (CAMP4 THERAPEUTICS CORPORATION, priority 2017, published 2021).

tested on: hepatocytes; assay: RNA-seq of hepatocytes stimulated with the compounds of Table 68; details: not given

Molecule	# of genes having significantly altered expression
O=C1NC(=O)/C(=C/c2cccc(C(F)(F)F)c2)S1 [SMI-4a]	1436
COc1ccc(C(=O)Nc2sc3c(c2C(N)=O)CCCC3)cc1OC [TCS 359]	63
Cc1cc(C(C)Nc2ccccc2)c2nc(N3CCOCC3)cc(=O)n2c1 (centres unmarked) [TGX-221]	1
COc1cccc(-c2cc(NCc3ccc4c(c3)OCO4)nc(N)n2)c1 [Wnt agonist 1]	138
Pifithrin-μ	5377
Varenicline tartrate	7

same assay, conditions: hepatocytes stimulated with the compound; RNA-seq; significance: FPKM≥1, q-value≤0.05, log 2 fold change≥1.5

Molecule	# of genes having significantly altered expression
CNC(=O)c1cc(Oc2ccc(NC(=O)Nc3ccc(Cl)c(C(F)(F)F)c3)c(F)c2)ccn1 [Regorafenib]	10
Cc1c(C(=O)NN2CCCCC2)nn(-c2ccc(Cl)cc2Cl)c1-c1ccc(Cl)cc1 [Rimonabant]	1392
Oc1c2ccccc2c2c3c(cccc13)N=N2 [SP600125]	193
C[C@@H]1CC(=O)c2c(ccc3c2C(=O)c2cccc(O)c2C3=O)C1 [STA-21]	6
O=C1CCC(N2C(=O)c3ccccc3C2=O)C(=O)N1 (centres unmarked) [Thalidomide]	3092
Activin	798
Nodal (protein, UniProt Q96S42 238-347, looked up) Nodal homolog: HHLPDRSQLCRKVKFQVDFNLIGWGSWIIYPKQYNAYRCEGECPNPVGEEFHPTNHAYIQSLLKRYQPHRVPSTCCAPVKTKPLSMLYVDNGRVLLDHHKDMIVEECGCL	863
Wnt3a (protein, UniProt P56704 19-352, looked up) Protein Wnt-3a: SYPIWWSLAVGPQYSSLGSQPILCASIPGLVPKQLRFCRNYVEIMPSVAEGIKIGIQECQHQFRGRRWNCTTVHDSLAIFGPVLDKATRESAFVHAIASAGVAFAVTRSCAEGTAAICGCSSRHQGSPGKGWKWGGCSEDIEFGGMVSREFADARENRPDARSAMNRHNNEAGRQAIASHMHLKCKCHGLSGSCEVKTCWWSQPDFRAIGDFLKDKYDSASEMVVEKHRESRGWVETLRPRYTYFKVPTERDLVYYEASPNFCEPNPETGSFGTRDRTCNVSSHGIDGCDLLCCGRGHNARAERRREKCRCVFHWCCYVSCQECTRVYDVHTCK	1142
Anti-mullerian hormone (protein, UniProt P03971 452-560, looked up) Muellerian-inhibiting factor: SAGATAADGPCALRELSVDLRAERSVLIPETYQANNCQGVCGWPQSDRNPRYGNHVVLLLKMQVRGAALARPPCCVPTAYAGKLLISLSEERISAHHVPNMVATECGCR	912
GDF10 (BMP3b) (protein, UniProt P55107 369-478, looked up) Growth/differentiation factor …: QWDEPRVCSRRYLKVDFADIGWNEWIISPKSFDAYYCAGACEFPMPKIVRPSNHATIQSIVRAVGIIPGIPEPCCVPDKMNSLGVLFLDENRNVVLKVYPNMSVDTCACR	855
BMP4 (protein, UniProt P12644 293-408, looked up) Bone morphogenetic protein 4: SPKHHSQRARKKNKNCRRHSLYVDFSDVGWNDWIVAPPGYQAFYCHGDCPFPLADHLNSTNHAIVQTLVNSVNSSIPKACCVPTELSAISMLYLDEYDKVVLKNYQEMVVEGCGCR	2218
